The METLIN SMRT retention time set (Domingo-Almenara et al. 2019)

Test: gradient 5% acetonitrile 3 min, to 50% in 2 min, to 85% in 15 min, held 3 min, 100 µL/min
Conditions: column: Zorbax Extend-C18 2.1 x 50 mm; eluents: water / acetonitrile, 0.1% formic acid
How it was run: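 Data were gathered over 3 months by HPLC coupled to a quadrupole time-of-flight mass spectrometer, operated in positive and negative ionization mode. Mixtures of ~100 pure standards ran on a Zorbax Extend-C18 column (2.1 × 50 mm, 1.8 μm) at 100 μL/min, with water and acetonitrile each containing 0.1% formic acid and dead and dwell volumes of 40 μL and 900 μL. Retention time was read from adduct peaks picked by computer and checked manually.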

| RP-LC retention time | Structure (SMILES) |
| --- | --- |
| 628 s | O=C([C@@H]1C[C@H](F)CN1C(=O)Nc1cccc(F)c1)N1CCOCC1 |
| 639 s | Cn1ncc2c3ccccc3n(CC(=O)N3CCN(Cc4ccccc4)CC3)c2c1=O |
| 832 s | O=C(Nc1cccc(F)c1)C1CCN(C(=O)c2ncn3c2COC(c2ccc(F)cc2)C3)CC1 (stereo not given) |
| 698 s | CCCCSc1cc(C)nc(N)n1 |
| 768 s | O=C(Nc1ccc2c(c1)OCCO2)c1ccc(-c2ccnc(N3CCCC3)n2)cc1 |
| 705 s | CNC(=O)C1=CCN(C(=O)c2cc(C)cc(C)c2)CC1 |
| 866 s | Oc1ccc([C@@H]2Oc3ccc(O)cc3[C@@H]3CCC[C@@H]32)cc1 |
| 610 s | COc1ccc(NC(=O)N2CCN(c3nc4ccccc4n3C)CC2)cc1OC |
| 740 s | O=C(NCCc1nc(-c2ccccc2)cs1)C1CC(=O)N(c2n[nH]c3ccccc23)C1 (stereo not given) |
| 1000 s | COc1ccc(-n2c(=O)c3sccc3n(Cc3nc(-c4ccccc4C)no3)c2=O)cc1 |
| 659 s | CCN1CCCn2nc(C3CCN(C(=O)c4cncc(Br)c4)CC3)cc2C1=O |
| 620 s | Cc1nnc(N2CCC(C(=O)N3CCOCC3)CC2)c2nn(-c3ccccc3)c(C)c12 |
| 594 s | O=C(CCc1c[nH]c2ccccc12)N1CCC(c2nc3ccccc3[nH]2)CC1 |
| 736 s | O=C(Nc1cccc(Cl)c1)Nc1ccc2nc3n(c(=O)c2c1)CCC3 |
| 1070 s | O=S(=O)(c1ccc(F)cc1)N1CCc2nc(-c3ccc(F)cc3)ncc2C1 |
| 684 s | Cc1cc(NC(=O)N2CCC(n3cnc4cccnc43)CC2)ccc1Br |
| 1080 s | Cc1ccccc1-c1nnc(CSc2nnc(NC(=O)CC3CCCCC3)s2)o1 |
| 831 s | COc1ccc(Cl)cc1NC(=O)CN1C(=O)NC2(CCCCC2)C1=O |
| 769 s | NC(=O)c1oc2ccccc2c1NC(=O)c1coc2ccccc2c1=O |
| 808 s | CSc1ccc(-c2nc3cccc(C)n3c2Nc2ccccc2C)cc1 |
| 599 s | COc1ccc(C(=O)Nc2ccc3nc(N4CCN(CCC#N)CC4)cc(C(=O)O)c3c2)cc1 |
| 686 s | Cn1nnc2cc(CNC(=O)c3ccc(F)cc3)ccc21 |
| 690 s | CC(C)OCCCNC(=O)C1CC(=O)N(c2n[nH]c3cc(Br)ccc23)C1 (stereo not given) |

| RP-LC retention time | Structure (SMILES) |
| --- | --- |
| 561 s | Cn1c(=O)n(C)c2cc(CNc3ccc4[nH]c(=O)[nH]c4c3)ccc21 |
| 708 s | O=S(=O)(NCc1ccccc1F)c1c[nH]c2ncccc12 |
| 707 s | CC(Cc1ccco1)NC(=O)C1CCN(Cc2cn(C)c3ccc(Cl)cc23)CC1 (stereo not given) |
| 835 s | CC(C)CCN1C(=O)C2(NCCc3c2[nH]c2ccccc32)c2cc(Br)ccc21 (stereo not given) |
| 1130 s | CCOC(=O)C1CCN(S(=O)(=O)c2ccc(Cl)c(-c3nnc(-c4ccccc4)o3)c2)CC1 |
| 829 s | Cc1cc(C(=O)N2c3ccccc3CC2c2nnc(C(C)C)o2)nn1C (stereo not given) |
| 707 s | CCn1cc(CN2CCC(C(=O)NC(C)c3ccccc3)CC2)c2cc(OC)ccc21 (stereo not given) |
| 828 s | COc1ccc(NS(=O)(=O)c2cc3n(c2)CCN(CC(C)C)C3=O)cc1Cl |
| 764 s | COCCNS(=O)(=O)c1ccc(-c2c(C)noc2C)cc1 |
| 628 s | COc1ccc(NC(=O)N2CCc3c(c(=O)c4cc(C)cc(C)c4n3C)C2)cc1OC |
| 648 s | CCN1CCN(c2nc3cc(C(=O)OC)ccc3c(=O)n2-c2ccc3c(c2)OCO3)CC1 |
| 824 s | Cc1ccc(NC(=O)N2CCC3(CC2)N=C(c2ccccc2)C(=O)N3)cc1C |
| 1230 s | COc1ccccc1NC(=O)CSc1nc2ccccc2c(=O)n1C1CCCCC1 |
| 629 s | COc1ccc(NC(=O)Nc2c(-c3ccc(F)cc3)nc3ccccn23)cc1OC |
| 1050 s | C=CCN1C(=O)COc2ccc(-c3csc(NC(=O)c4ccc(C)cc4)n3)cc21 |
| 608 s | CC(=O)N[C@@H]1CN(C(=O)c2cc(Cl)ccc2F)C[C@H]1CO |
| 818 s | CC(C)NC(=O)c1ccc(OCC2CCCN(C(=O)c3ccc(N(C)C)cc3)C2)cc1 (stereo not given) |
| 616 s | CCN1C(=O)COc2cc(-c3noc(C(=O)N4CCN(C)CC4)n3)ccc21 |
| 600 s | O=C(NCc1ccccn1)C1CC(=O)N(c2n[nH]c3cc(Br)ccc23)C1 (stereo not given) |
| 788 s | C=CCn1ccc2c(OCC(=O)NC3CCCC3)cccc2c1=O |
| 718 s | O=C(NC1CC1)c1ccc(OCC2CCCN(C(=O)C3CC3)C2)cc1 (stereo not given) |
| 1320 s | CC(C)c1ccc(-n2ncc3c(=O)n(Cc4nc(-c5ccc(Cl)cc5)no4)cnc32)cc1 |
| 783 s | CCN(c1cccc(C)c1)S(=O)(=O)c1cc2n(c1)CCCN(C)C2=O |

| RP-LC retention time | Structure (SMILES) |
| --- | --- |
| 843 s | Cc1cc(C)cc(NC(=O)Cn2c(C)cc(-c3nnc(C)o3)c2C)c1 |
| 957 s | COc1ccccc1-c1noc(C2CCCN2C(=O)Nc2cc(C)cc(C)c2)n1 (stereo not given) |
| 721 s | CCOc1ccc(-c2cc(=O)n(CCCC(=O)Nc3ccc4sc(C)nc4c3)cn2)cc1 |
| 1080 s | CCOc1ccccc1N1CCN(S(=O)(=O)c2nn(C)cc2C(=O)NCCC(C)C)CC1 |
| 920 s | COC(=O)C1=CN(c2ccc(C)c(F)c2)c2cc(F)ccc2S1(=O)=O |
| 758 s | COc1cc(NCc2ccccc2O)c2ncccc2c1 |
| 1190 s | CC(C)n1c(=O)c2ccccc2n(Cc2nc(-c3cccc(Cl)c3)no2)c1=O |
| 924 s | CCc1ccc(-c2csc(NC(=O)c3cccnc3)n2)cc1 |
| 905 s | COc1ccc(-c2ccnc3nc(CC(C)C)nn23)cc1 |
| 950 s | Cc1nc(-c2ccc3c(c2)CCN3C(=O)Cc2c[nH]c3ccccc23)cs1 |
| 737 s | C[C@@H](CN1CCC(Cc2ccccc2)CC1)[C@@H](O)c1ccc(O)cc1 |
| 969 s | Cc1ccc(C(=O)NCc2nc(-c3ccc4c(c3)nnn4C3CCCC3)no2)cc1 |
| 759 s | COCC1CN(C(=O)c2ccco2)CCC1(F)F (stereo not given) |
| 850 s | CC1=C(c2cccc(Cl)c2)S(=O)(=O)N=C1N1CCCN(C(=O)C2CCC2)CC1 |
| 550 s | CCNS(=O)(=O)c1c(C)[nH]c(=O)[nH]c1=O |
| 742 s | CSc1cccc(NC(=O)Nc2cccc(-c3ccc(N4CCOCC4)nn3)c2)c1 |
| 688 s | O=C(Cn1nc2n(c1=O)CCCC2)Nc1ccc(Cl)cc1 |
| 603 s | COCCNC(=O)c1ccc(-c2ccc(N3CCCCC3)nc2)cc1 |
| 574 s | CC(=O)N1CCCC1c1nc2ccccc2n1CC(=O)N1CCCC1 (stereo not given) |
| 574 s | COc1cccc(CN2CCn3c(nnc3[C@@H]3C[C@@H](O)CN3C)C2)c1 |
| 612 s | Cc1nc2cccnc2n1C1CCN(C(=O)Nc2ccc3c(c2)OCCO3)CC1 |
| 602 s | O=C(NCCc1ccccn1)C1CN(C(=O)c2cccs2)CC12CCCCC2 (stereo not given) |
| 687 s | Cc1cccc(NS(=O)(=O)c2ccc3nnc(C)n3c2)c1 |

| RP-LC retention time | Structure (SMILES) |
| --- | --- |
| 611 s | CCCc1cc(N2CCN(C(=O)c3ccsc3)CC2)nc2nnc(C)n12 |
| 1060 s | COc1cc(OC)cc(-c2noc(CCn3nc(-c4ccc(Cl)cc4)ccc3=O)n2)c1 |
| 937 s | CCCCOc1ccc(CNC(=O)C2CCN(C(=O)c3cc4ccsc4[nH]3)CC2)cc1 |
| 751 s | Cc1ccc(CNS(=O)(=O)c2ccc3c(c2)CCCC(=O)N3)cc1 |
| 786 s | COc1ccc(-c2noc(C3CC(=O)N(c4ccc(OC)c(OC)c4)C3)n2)c(OC)c1 (stereo not given) |
| 593 s | O=C(NCCC1=CCCCC1)C(=O)NCC1CCN(Cc2ccccc2)CC1 |
| 726 s | O=C(Nc1ccc2nncn2c1)Nc1cc(F)ccc1F |
| 1010 s | COc1cc(Nc2nc3c(s2)CCCC3c2ccc(F)cc2)ccc1-n1cnc(C)c1 (stereo not given) |
| 873 s | CN(C)S(=O)(=O)c1ccc(C(=O)N2CC(=O)Nc3ccc(Cl)cc3C2c2ccccc2)cc1 (stereo not given) |
| 605 s | CCNC(=O)N1CCC(c2noc(-c3cccnc3)n2)C1 (stereo not given) |
| 820 s | Cc1ccc(NC(=O)N2CCCN(c3ccc(=O)n(-c4ccccc4)n3)CC2)cc1 |
| 1240 s | Cc1sc(-c2cc(C(F)(F)F)on2)cc1S(=O)(=O)Nc1cccc(Cl)c1C |
| 622 s | O=C(Nc1ccccc1)N1C[C@H]2C[C@H](C1)[C@H]1CCCC(=O)N1C2 |
| 587 s | O=C(NCc1nc2ccccc2n1CC(=O)N1CCCC1)c1ccco1 |
| 632 s | O=C(N[C@@H]1CN(Cc2ccc3c(c2)CCO3)C[C@H]1CO)C1CC1 |
| 692 s | CCOC(=O)CNC(=O)N1CC(n2cc(COc3ccc(F)cc3)nn2)C1 |
| 1090 s | CCc1nc2cc(-c3noc(/C=C/c4ccco4)n3)ccc2o1 |
| 1140 s | Cc1ccc(S(=O)(=O)N2CC(C(=O)NC3CCCC3)Oc3ccc(C)cc32)cc1 (stereo not given) |
| 647 s | CCN(CC)CCOC(=O)c1cc(Cl)c(N)cc1OC |
| 768 s | CC(CCNc1ccc(-c2nc(-c3ccc(F)cc3)no2)cn1)N1CCCCCC1 (stereo not given) |
| 744 s | O=c1n(CCOc2ccc(F)cc2)nc2c(S(=O)(=O)N3CCCCCC3)cccn12 |
